In US20180213779A1, “PESTICIDALLY ACTIVE HETEROCYCLIC DERIVATIVES WITH SULPHUR CONTAINING SUBSTITUENTS” (SYNGENTA PARTICIPATIONS AG, priority 2015, published 2018):

Assays:
Format in all cases: in vivo
[1] = test system: Plutella xylostella (Diamond Back Moth); experiment: Example B11: Activity against Plutella xylostella (artificial diet, 24-well, L2 larvae); conditions: 120 h, application rate of 200 ppm, 5 days after infestation, read-out: effect in at least one of the two categories (mortality or growth inhibition)
Procedure: Example B11: Activity Against Plutella xylostella (Diamond Back Moth)
(§1) 24-well microtiter plates with artificial diet were treated with aqueous test solutions prepared from 10′000 ppm DMSO stock solutions by pipetting. After drying, the plates were infested with L2 larvae (10 to 15 per well). The samples were assessed for mortality and growth inhibition in comparison to untreated samples 5 days after infestation.

[2] = test system: Diabrotica balteata (Corn Root Worm); experiment: Example B6: Activity against Diabrotica balteata (sprayed maize sprouts); conditions: 96 h, application rate of 200 ppm, L2 larvae, 4 days after infestation, read-out: effect in at least one of the two categories (mortality or growth inhibition)
Procedure: Example B6: Activity Against Diabrotica Balteata (Corn Root Worm)
as §1, with “Maize sprouts placed onto an agar layer in 24-well” for “24-well”, “plates” for “plates with artificial diet”, “spraying.” for “pipetting.”, “(6” for “(10”, “10” for “15”, “4” for “5”

[3] = test system: Plutella xylostella (Diamond-Back Moth); experiment: Example B3: Plutella xylostella larvicide, feeding/contact activity, preventative (artificial diet, 96-well); conditions: 216 h, application rate of 500 ppm, mortality assessed 9 days after treatment
Procedure: Example B3: Plutella xylostella (Diamond-Back Moth) larvicide, feeding/contact activity, preventative Artificial diet was dispensed into a 96-well microtiter plate and treated with aqueous test solutions prepared from 10′000 ppm DMSO stock solutions. Eggs were suspended above the treated diet and first instar larvae hatched onto the diet. Mortality was assessed 9 days after treatment.

[4] = test system: Tetranychus urticae (Two-Spotted Spider Mite); experiment: Example B12: Activity against Tetranychus urticae (sprayed bean leaf discs); conditions: foliar, 192 h, application rate of 200 ppm, mixed population (mobile stages), 8 days after infestation
Procedure: Example B12: Activity Against Tetranychus urticae (Two-Spotted Spider Mite)
Bean leaf discs on agar in 24-well microtiter plates were sprayed with aqueous test solutions prepared from 10′000 ppm DMSO stock solutions. After drying the leaf discs were infested with a mite population of mixed ages. The samples were assessed for mortality on mixed population (mobile stages) 8 days after infestation.

[5] = test system: Spodoptera littoralis (Egyptian Cotton Leaf Worm); experiment: Example B4: Activity against Spodoptera littoralis (sprayed cotton leaf discs); conditions: foliar, 72 h, application rate of 200 ppm, L1 larvae, 3 days after infestation
Procedure: Example B4: Activity Against Spodoptera littoralis (Egyptian Cotton Leaf Worm)
Cotton leaf discs were placed on agar in 24-well microtiter plates and sprayed with aqueous test solutions prepared from 10′000 ppm DMSO stock solutions. After drying the leaf discs were infested with five L1 larvae. The samples were assessed for mortality, anti-feedant effect, and growth inhibition in comparison to untreated samples 3 days after infestation. Control of Spodoptera littoralis by a test sample is given when at least one of the categories mortality, anti-feedant effect, and growth inhibition is higher than the untreated sample.

[6] = test system: Myzus persicae (Green Peach Aphid); experiment: Example B10: Activity against Myzus persicae (sucrose solution, Parafilm feeding); conditions: 120 h, test rate of 12 ppm, 5 days after infestation
Text: Example B10: Activity Against Myzus persicae (Green Peach Aphid)
Test compounds prepared from 10′000 ppm DMSO stock solutions were applied by pipette into 24-well microtiter plates and mixed with sucrose solution. The plates were closed with a stretched Parafilm. A plastic stencil with 24 holes was placed onto the plate and infested pea seedlings were placed directly on the Parafilm. The infested plate was closed with a gel blotting paper and another plastic stencil and then turned upside down. The samples were assessed for mortality 5 days after infestation.

[7] = test system: Myzus persicae (Green Peach Aphid); experiment: Example B8: Activity against Myzus persicae (sprayed sunflower leaf discs); conditions: foliar, 144 h, application rate of 200 ppm, mixed ages, 6 days after infestation
Procedure: Example B8: Activity Against Myzus persicae (Green Peach Aphid)
Sunflower leaf discs were placed onto agar in a 24-well microtiter plate and sprayed with aqueous test solutions prepared from 10′000 ppm DMSO stock solutions. After drying, the leaf discs were infested with an aphid population of mixed ages. The samples were assessed for mortality 6 days after infestation.

| SMILES | percent effect (mortality or growth inhibition) at 200 ppm [1] [%] | effect (mortality or growth inhibition) at 200 ppm [2] [%] | pest or weed control at 500 ppm [3] [%] | mortality at 200 ppm [4] [%] | percent control (mortality, anti-feedant effect or growth inhibition) at 200 ppm [5] [%] | mortality at 12 ppm [6] [%] | mortality at 200 ppm [7] [%] |
| --- | --- | --- | --- | --- | --- | --- | --- |
| CCS(=O)(=O)c1cc(Br)cnc1-c1cn(-c2cccc(C(F)(F)F)c2)nn1 [Compound P12, 5-bromo-3-ethylsulfonyl-2-[1-[3-(trifluoromethyl)phenyl]triazol-4-yl]pyridine] | ≥ 80 | ≥ 80 | ≥ 70 | ≥ 80 | ≥ 80 | – | – |
| CCSc1cccnc1-c1cn(-c2cncc(C(F)(F)F)c2)nn1 [Compound P19] | – | ≥ 80 | ≥ 70 | – | – | ≥ 80 | ≥ 80 |
